Several values for one entry are separate records, joined by “and”; a condition that tells them apart may be missing. Equal values may be shown once. Toxic doses and inconclusive results are not listed.
Tested on: L1210 leukemia ip in BDF1 mice, survival T/C
Assay: NCI In Vivo Anticancer Drug Screen. Data for tumor model L1210 Leukemia (intraperitoneal) in B6D2F1 (BDF1) mice
Details: endpoint: mean survival time, higher = longer survival
Method in brief: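 Transplanted-tumor mice were given test agent; controls received vehicle only. Survival readings from the two groups were divided (treated over control).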

With CCCCNC(=O)Nc1ccccc1C(N)=O the T/C (dose: 100.0 mg/kg/injection, schedule: Q01DX009 (ip), vehicle: Klucel (hydroxypropylcellulose) (HPC)) was 97 % of control, the T/C (dose: 100.0 mg/kg/injection, schedule: Q04DX003 (ip), vehicle: Klucel (hydroxypropylcellulose) (HPC)) was 98 % of control and the T/C (dose: 200.0 mg/kg/injection, schedule: Q01DX009 (ip), vehicle: Klucel (hydroxypropylcellulose) (HPC)) was 95 % of control. For the same compound, the T/C (dose: 200.0 mg/kg/injection, schedule: Q04DX003 (ip), vehicle: Klucel (hydroxypropylcellulose) (HPC)) was 94 % of control, the T/C (dose: 400.0 mg/kg/injection, schedule: Q01DX009 (ip), vehicle: Klucel (hydroxypropylcellulose) (HPC)) was 105 % of control and the T/C (dose: 400.0 mg/kg/injection, schedule: Q04DX003 (ip), vehicle: Klucel (hydroxypropylcellulose) (HPC)) was 96 % of control.
For Cc1cc2ncn(CC(=O)O)c2cc1C, the T/C (dose: 100.0 mg/kg/injection, schedule: Q04DX003 (ip), vehicle: saline) was 101 % of control, the T/C (dose: 200.0 mg/kg/injection, schedule: Q04DX003 (ip), vehicle: saline) was 95 % of control and the T/C (dose: 400.0 mg/kg/injection, schedule: Q04DX003 (ip), vehicle: saline) was 97 % of control.
With CC(=O)NC1=C(N2CC2)C(=O)C(NC(C)=O)=C(N2CC2)C1=O the T/C (dose: 0.01 mg/kg/injection, schedule: Q01DX Z (ip), vehicle: alkali diluted with saline) was 96 % of control, the T/C (dose: 0.03 mg/kg/injection, schedule: Q01DX Z (ip), vehicle: alkali diluted with saline) was 96 % of control and the T/C (dose: 0.06 mg/kg/injection, schedule: Q01DX006 (iv), vehicle: saline) was 113 % of control. The T/C (dose: 0.06 mg/kg/injection, schedule: Q01DX Z (ip), vehicle: alkali diluted with saline) was 97 % of control and 105 % of control, the T/C (dose: 0.06 mg/kg/injection, schedule: Q01DX Z (ip), vehicle: saline) was 113 % of control and the T/C (dose: 0.12 mg/kg/injection, schedule: Q01DX Z (ip), vehicle: alkali diluted with saline) was 100 % of control and 102 % of control. For the same compound, the T/C (dose: 0.12 mg/kg/injection, schedule: Q01DX Z (oral), vehicle: carboxymethylcellulose (CMC)) was 97 % of control, the T/C (dose: 0.13 mg/kg/injection, schedule: Q01DX006 (iv), vehicle: saline) was 118 % of control and the T/C (dose: 0.24 mg/kg/injection, schedule: Q01DX Z (ip), vehicle: alkali diluted with saline) was 109 % of control. For the same compound, the T/C (dose: 0.25 mg/kg/injection, schedule: Q01DX006 (iv), vehicle: saline) was 108 % of control, the T/C (dose: 0.25 mg/kg/injection, schedule: Q01DX Z (im), vehicle: saline) was 121 % of control and the T/C (dose: 0.25 mg/kg/injection, schedule: Q01DX Z (ip), vehicle: saline) was 159 % of control. For the same compound, the T/C (dose: 0.25 mg/kg/injection, schedule: Q01DX Z (oral), vehicle: carboxymethylcellulose (CMC)) was 101 % of control, the T/C (dose: 0.25 mg/kg/injection, schedule: Q01DX Z (sc), vehicle: saline) was 102 % of control and the T/C (dose: 0.38 mg/kg/injection, schedule: Q03DX005 (oral), vehicle: saline) was 111 % of control. For the same compound, the T/C (dose: 0.38 mg/kg/injection, schedule: Q03DX006 (oral), vehicle: saline) was 106 % of control, the T/C (dose: 0.48 mg/kg/injection, schedule: Q01DX Z (ip), vehicle: alkali diluted with saline) was 97 % of control and the T/C (dose: 0.5 mg/kg/injection, schedule: Q01DX Z (ip), vehicle: saline) was 185 % of control and 201 % of control. The T/C (dose: 0.5 mg/kg/injection, schedule: Q01DX Z (oral), vehicle: carboxymethylcellulose (CMC)) was 100 % of control, the T/C (dose: 0.75 mg/kg/injection, schedule: Q03DX005 (oral), vehicle: saline) was 111 % of control and the T/C (dose: 0.75 mg/kg/injection, schedule: Q03DX006 (oral), vehicle: saline) was 109 % of control. The T/C (dose: 0.9 mg/kg/injection, schedule: Q01DX001 (oral), vehicle: saline) was 103 % of control and 104 % of control and 108 % of control, the T/C (dose: 0.9 mg/kg/injection, schedule: Q07DX002 (oral), vehicle: saline) was 108 % of control and the T/C (dose: 0.9 mg/kg/injection, schedule: Q07DX003 (oral), vehicle: saline) was 101 % of control. For the same compound, the T/C (dose: 0.96 mg/kg/injection, schedule: Q01DX Z (ip), vehicle: alkali diluted with saline) was 103 % of control, the T/C (dose: 0.96 mg/kg/injection, schedule: Q01DX Z (ip), vehicle: other) was 194 % of control and the T/C (dose: 1.0 mg/kg/injection, schedule: Q01DX006 (iv), vehicle: saline) was 170 % of control. The T/C (dose: 1.0 mg/kg/injection, schedule: Q01DX Z (ip), vehicle: carboxymethylcellulose (CMC)) was 155 % of control, the T/C (dose: 1.0 mg/kg/injection, schedule: Q01DX Z (ip), vehicle: saline) was 164 % of control and 220 % of control and the T/C (dose: 1.0 mg/kg/injection, schedule: Q01DX Z (oral), vehicle: carboxymethylcellulose (CMC)) was 109 % of control. For the same compound, the T/C (dose: 1.0 mg/kg/injection, schedule: Q01DX Z (oral), vehicle: saline) was 121 % of control, the T/C (dose: 1.0 mg/kg/injection, schedule: Q01DX Z (sc), vehicle: saline) was 161 % of control and the T/C (dose: 1.0 mg/kg/injection, schedule: Q#A X Z (oral), vehicle: saline) was 115 % of control. The T/C (dose: 1.25 mg/kg/injection, schedule: Q01DX Z (ip), vehicle: carboxymethylcellulose (CMC)) was 164 % of control, the T/C (dose: 1.5 mg/kg/injection, schedule: Q01DX Z (ip), vehicle: saline) was 163 % of control and the T/C (dose: 1.5 mg/kg/injection, schedule: Q03DX005 (oral), vehicle: saline) was 108 % of control. For the same compound, the T/C (dose: 1.5 mg/kg/injection, schedule: Q03DX006 (oral), vehicle: saline) was 124 % of control and 91 % of control, the T/C (dose: 1.75 mg/kg/injection, schedule: Q01DX001 (oral), vehicle: saline) was 104 % of control and 111 % of control and 117 % of control and the T/C (dose: 1.75 mg/kg/injection, schedule: Q07DX002 (oral), vehicle: saline) was 108 % of control. For the same compound, the T/C (dose: 1.75 mg/kg/injection, schedule: Q07DX003 (oral), vehicle: saline) was 117 % of control, the T/C (dose: 1.9 mg/kg/injection, schedule: Q01DX Z (ip), vehicle: alkali diluted with saline) was 101 % of control and the T/C (dose: 1.9 mg/kg/injection, schedule: Q01DX Z (ip), vehicle: other) was 122 % of control. The T/C (dose: 2.0 mg/kg/injection, schedule: Q01DX006 (iv), vehicle: saline) was 168 % of control and 174 % of control, the T/C (dose: 2.0 mg/kg/injection, schedule: Q01DX Z (im), vehicle: saline) was 113 % of control and the T/C (dose: 2.0 mg/kg/injection, schedule: Q01DX Z (ip), vehicle: saline) was 116 % of control and 117 % of control. The T/C (dose: 2.0 mg/kg/injection, schedule: Q01DX Z (oral), vehicle: saline) was 118 % of control, the T/C (dose: 2.2 mg/kg/injection, schedule: Q01DX Z (ip), vehicle: carboxymethylcellulose (CMC)) was 103 % of control and 114 % of control and the T/C (dose: 2.5 mg/kg/injection, schedule: Q01DX Z (ip), vehicle: carboxymethylcellulose (CMC)) was 117 % of control. The T/C (dose: 3.0 mg/kg/injection, schedule: Q01DX Z (ip), vehicle: saline) was 106 % of control, the T/C (dose: 3.0 mg/kg/injection, schedule: Q03DX006 (oral), vehicle: saline) was 94 % of control and 114 % of control and the T/C (dose: 3.3 mg/kg/injection, schedule: Q01DX Z (ip), vehicle: carboxymethylcellulose (CMC)) was 101 % of control and 90 % of control. The T/C (dose: 3.5 mg/kg/injection, schedule: Q01DX001 (oral), vehicle: saline) was 101 % of control and 105 % of control and 106 % of control, the T/C (dose: 3.5 mg/kg/injection, schedule: Q07DX002 (oral), vehicle: saline) was 97 % of control and the T/C (dose: 3.5 mg/kg/injection, schedule: Q07DX003 (oral), vehicle: saline) was 109 % of control. The T/C (dose: 4.0 mg/kg/injection, schedule: Q01DX006 (iv), vehicle: saline) was 88 % of control, the T/C (dose: 4.0 mg/kg/injection, schedule: Q01DX Z (sc), vehicle: saline) was 96 % of control and the T/C (dose: 4.9 mg/kg/injection, schedule: Q01DX Z (ip), vehicle: carboxymethylcellulose (CMC)) was 90 % of control. For the same compound, the T/C (dose: 6.0 mg/kg/injection, schedule: Q03DX005 (oral), vehicle: saline) was 103 % of control, the T/C (dose: 6.0 mg/kg/injection, schedule: Q03DX006 (oral), vehicle: saline) was 124 % of control and the T/C (dose: 7.0 mg/kg/injection, schedule: Q01DX001 (oral), vehicle: saline) was 106 % of control and 120 % of control. For the same compound, the T/C (dose: 7.0 mg/kg/injection, schedule: Q07DX003 (oral), vehicle: saline) was 117 % of control, the T/C (dose: 8.0 mg/kg/injection, schedule: Q01DX Z (oral), vehicle: saline) was 156 % of control and 175 % of control and the T/C (dose: 8.0 mg/kg/injection, schedule: Q#A X Z (oral), vehicle: saline) was 152 % of control. For the same compound, the T/C (dose: 16.0 mg/kg/injection, schedule: Q01DX Z (oral), vehicle: saline) was 122 % of control, the T/C (dose: 28.0 mg/kg/injection, schedule: Q07DX003 (oral), vehicle: saline) was 153 % of control and the T/C (dose: 32.0 mg/kg/injection, schedule: Q01DX Z (oral), vehicle: saline) was 95 % of control. For the same compound, the T/C (dose: 112.0 mg/kg/injection, schedule: Q07DX003 (oral), vehicle: saline) was 111 % of control, the T/C (dose: 224.0 mg/kg/injection, schedule: Q01DX001 (oral), vehicle: saline) was 120 % of control and the T/C (dose: 448.0 mg/kg/injection, schedule: Q01DX001 (oral), vehicle: saline) was 108 % of control. The T/C (dose: 600.0 mg/kg/injection, schedule: Q01DX001 (oral), vehicle: saline) was 107 % of control, the T/C (dose: 800.0 mg/kg/injection, schedule: Q01DX001 (oral), vehicle: saline) was 113 % of control and the T/C (dose: 1000.0 mg/kg/injection, schedule: Q01DX001 (oral), vehicle: saline) was 110 % of control.
